Patent US8211919B2, “Amide derivatives as rock inhibitors” (Astellas Pharma Inc., priority 2005, dated 2012)
Counter-ions that a name gives are not always drawn.

Assays:
human ROCK I = molecular target: T1, human ROCK I (Homo sapiens, UniProt Q13464); assay: ROCK enzyme inhibition assay; format: biochemical
T1 construct: purchased Caruna Biosciences (sic)
Experimental: ROCK enzyme inhibitory activity of the compounds of the present invention has been assayed as follow. A aqueous solution of Rho kinase substrate MYTP was added to 96-well plate. Following incubation for overnight at 4° C., the plate was blocked by using blocking buffer containing BSA. To the plate was added reaction buffer containing each concentration of compound, suitable concentration of human ROCK I (Caruna Biosciences), ATP, β-glycerol phosphate, EGTA, sodium orthovanadate and DTT, and then the plate was incubated for 1 hour. After washing the plate by washing buffer, anti-phosphothreonin antibody was added to the plate, and then the plate was incubated for 1 hour. After washing the plate by washing buffer again, HRP-conjugated anti-phosphorylated protein antibody was added to the plate, and then the plate was incubated for 1 hour. After washing the plate by washing buffer again, calorimetric substrate TMB microwell peroxidase substrate was added to the plate, and then the plate was incubated for appropriate time. After incubation, H2SO4 was added to the plate to stop the reaction, and then absorbance (450 nm) was measured by using spectromether. Based on the absorbance for each compound, the data is fit using Prism software to obtain a IC50 value.

[1] = test system: Male SD rats, intra-articular MIA in right knee; assay: Changes in hindlimb weight distribution, monosodium iodoacetate (MIA) osteoarthritis model; format: in vivo; conditions: Rattus norvegicus, 504 h; oral administration; three weeks after MIA injection; incapacitance tester
From the text: As intra-articular injection of monosodium iodoacetate (MIA) induced human osteoarthritis-like histopathological changes in knee joint, this model would be very useful for the study of human osteoarthritis. Recently, it is reported the clinical scores of the joint pain were closely correrated to the grade of histological findings (J Vet Med Sci 65, 1195, 2003) and this model may be useful for estimation of therapeutic effects of pain with osteoarthritis.
Male SD rats were anesthetized with halothane (Takeda, Japan) and given single intra-articular injection of 1 mg of monosodium iodoacetate (MIA; Sigma, St. Louis, USA) through the infrapatellar ligament of the right knee. MIA was dissolved with physiologic saline and administered in a volume of 50 ul using a 27-gauge, 0.5-inch needle. Three weeks after the injection, hindlimb weight distribution was determined using an incapacitance tester (Linton Instrumentation, Norfork, UK). Rats were allowed to acclimate to the testing apparatus and when stationary, readings were taken over a 5 s period. […] Each group in each experiment were performed in about 8 animals.

Male Wistar rats [2] = assay: Effects on hindlimb blood flow (laser Doppler); format: in vivo, rat; conditions: 10 mg/kg p.o.
From the text: As one of the study to clarify the usefulness of the compounds of the present invention for peripheral arterial disease, we conducted a study to evaluate the effects of the compounds on hindlimb blood flow in rats.
Male Wistar rats were anesthetized by intraperitoneal pentobarbital injection (Kanto chemical, Japan) after oral administration of compounds. Rats were placed on a heating plate for subsequent hindlimb blood flow analysis. We measured hindlimb blood flow using a laser Doppler blood flow meter (PeriScan System, Stockholm, Sweden). After the laser Doppler images were recorded, the average perfusion values of both limbs were calculated, and evaluated the effects of compounds on hindlimb blood flow. Each experiment was performed in about 4 animals.

[3] = test system: Female SD rats, bradykinin injected into knee joint cavity; assay: Pain alleviation effect on bradykinin induced joint pain model; format: in vivo, rat
Experimental: Bradykinin is known to be one of the important pain-related mediators in various pain and especially, sodium hyaluronate which is useful for pain in osteoarthritis is reported to be effective in bradykinin-induced joint pain model. Therefore, we examined effects of compounds in the model.
The making of the joint pain model and evaluation of a level of pain was conducted essentially based on the method described in Folia pharmacol. japon., 92, 17-27 (1988). Female SD rats (6-7 weeks old, Charles River Japan, Inc.) were anesthetized with halothane (Wako). Compound of the above Example were administrated orally to the rat by using oral sonde for rat. 60 min after administration of the compound, saline solution of bradykinin was injected into knee joint cavity of hind limb of rat (3 uM/site/50 ul), and then the response to pain of the rat after administration of bradykinin was observed. Level of pain was scored as five grade point (0-4) as follow: 0: no lameness to lameness for 10 seconds; 1: lameness for 10 to 30 seconds; 2: lift of the limb within 10 seconds or lameness for 31 or more seconds; 3: three-legged gait within 10 seconds followed by lameness; 4: three-legged gait for 10 or more seconds followed by lameness. About 10 rat models were used in each experimental group. It was confirmed that administration of bradykinin leads to response to pain scored as about 3.

Male Wistar rats [4] = assay: Inhibitory effects on phenylephrine-induced elevation of urethral pressure; format: in vivo, rat; conditions: i.v.; phenylephrine 30 ug/kg i.v.
From the text: To evaluate the usefulness of the compounds of the present invention for urinary dysfunction associated with benign prostatic hyperplasia, we investigated the inhibitory effects of the intravenous administration of the compounds on phenylephrine-induced elevation of the urethral pressure in rats.
Male Wistar rats were anesthetized with urethane (SIGMA, USA). After midline abdominal incision, catheter to measure the urethral pressure (3.5 Fr, Millar, USA) was inserted into the urethra from top of the bladder. After confirming the Phenylephrine (30 ug/kg i.v.)-induced elevation of the urethral pressure, compounds were administered intravenously in increasing doses. Every 5 min after administration of compounds, Phenylephrine (30 ug/kg i.v.) was injected, and the inhibitory effects of compounds on phenylephrine-induced elevation of urethral pressure were evaluated. Each experiment was performed in about 4 animals.

T1 sequence (Q13464 whole entry): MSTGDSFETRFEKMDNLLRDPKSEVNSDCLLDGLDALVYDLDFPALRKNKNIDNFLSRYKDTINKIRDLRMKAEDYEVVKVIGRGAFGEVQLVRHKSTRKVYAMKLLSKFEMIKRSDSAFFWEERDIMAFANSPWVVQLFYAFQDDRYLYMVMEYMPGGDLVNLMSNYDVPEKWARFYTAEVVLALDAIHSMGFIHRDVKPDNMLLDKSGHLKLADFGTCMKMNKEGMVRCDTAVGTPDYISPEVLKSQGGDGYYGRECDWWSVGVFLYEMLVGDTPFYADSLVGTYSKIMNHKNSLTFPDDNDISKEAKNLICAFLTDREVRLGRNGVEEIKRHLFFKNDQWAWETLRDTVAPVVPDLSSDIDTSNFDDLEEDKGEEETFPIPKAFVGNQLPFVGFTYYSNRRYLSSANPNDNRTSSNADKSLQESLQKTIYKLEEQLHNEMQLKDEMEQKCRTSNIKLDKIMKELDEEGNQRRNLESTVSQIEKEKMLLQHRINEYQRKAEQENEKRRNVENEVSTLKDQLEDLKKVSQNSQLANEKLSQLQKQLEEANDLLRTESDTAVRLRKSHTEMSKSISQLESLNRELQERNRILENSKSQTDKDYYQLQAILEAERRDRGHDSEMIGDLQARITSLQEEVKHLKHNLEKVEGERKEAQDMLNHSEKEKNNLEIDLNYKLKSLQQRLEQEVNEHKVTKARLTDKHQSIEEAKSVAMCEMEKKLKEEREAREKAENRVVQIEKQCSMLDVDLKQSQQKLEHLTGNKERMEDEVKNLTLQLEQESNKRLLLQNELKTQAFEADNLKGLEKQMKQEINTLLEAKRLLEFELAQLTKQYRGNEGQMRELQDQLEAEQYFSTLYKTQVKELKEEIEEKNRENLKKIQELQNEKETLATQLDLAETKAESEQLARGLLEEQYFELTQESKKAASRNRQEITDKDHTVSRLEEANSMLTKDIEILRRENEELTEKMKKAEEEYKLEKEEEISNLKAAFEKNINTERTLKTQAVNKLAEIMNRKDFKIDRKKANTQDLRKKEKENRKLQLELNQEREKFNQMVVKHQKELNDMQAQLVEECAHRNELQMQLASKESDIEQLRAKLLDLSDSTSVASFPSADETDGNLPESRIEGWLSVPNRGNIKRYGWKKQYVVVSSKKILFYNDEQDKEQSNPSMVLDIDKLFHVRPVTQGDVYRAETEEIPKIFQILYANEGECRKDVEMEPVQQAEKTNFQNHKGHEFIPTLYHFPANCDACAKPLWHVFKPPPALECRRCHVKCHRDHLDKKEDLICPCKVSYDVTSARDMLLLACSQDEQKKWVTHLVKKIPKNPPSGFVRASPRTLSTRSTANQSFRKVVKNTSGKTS

Row | Compound | IC50 (human ROCK I) | ED50 [1] | % of increase of blood flow (Male Wistar rats [2]) | pain score ([3]; 32 mg/kg orally, 60 min before bradykinin, grade 0-4, vehicle 2.7) | bradykinin-induced pain responses ([3]; oral administration, dose dependence) | Inhibition of elevation in urethral pressure ED30 (Male Wistar rats [4])
1 | O=C(NCc1ccccc1)Nc1ccc(-c2ccncc2)cc1 [Example 1, 1-benzyl-3-[4-(4-pyridinyl)phenyl]urea] | 342 nM | – | – | – | – | –
2 | C[C@@H](NC(=O)Nc1ccc(-c2ccncc2)cc1)c1ccccc1 [Example 3, 1-[(1R)-1-phenylethyl]-3-[4-(4-pyridinyl)phenyl]urea] | 240 nM | – | – | – | – | –
3 | O=C(Nc1ccc(-c2ccncc2)cc1)N[C@H](CO)c1ccccc1 [Example 4, 1-[(1S)-2-hydroxy-1-phenylethyl]-3-[4-(4-pyridinyl)phenyl]urea] | 122 nM | < 3 mg/kg | >130% | – | – | –
4 | Cl.O=C(CNc1ccccc1)Nc1ccc(-c2ccncc2)cc1 [Example 26, 2-anilino-N-[4-(4-pyridinyl)phenyl]acetamide hydrochloride] | 77 nM | – | – | 1.4 | dose dependently improved | –
5 | N[C@@H](Cc1ccccc1)C(=O)Nc1ccc(-c2ccncc2)cc1 [Example 53, (2S)-2-amino-3-phenyl-N-[4-(4-pyridinyl)phenyl]propanamide dihydrochloride] | 18 nM | – | – | – | – | –
6 | N[C@H](Cc1ccccc1)C(=O)Nc1ccc(-c2ccncc2)cc1 [Example 54, (2R)-2-amino-3-phenyl-N-[4-(4-pyridinyl)phenyl]propanamide] | 10 nM | < 3 mg/kg | >130% | – | – | –
7 | N[C@@H](Cc1ccccc1)C(=O)N1CCc2cc(-c3ccncc3)ccc21 [Example 58, (2S)-1-oxo-3-phenyl-1-[5-(4-pyridinyl)-2,3-dihydro-1H-indol-1-yl]-2-propanamine] | 53 nM | < 3 mg/kg | – | – | – | –
8 | O=C(Nc1ccc(-c2ccncc2)cc1)N[C@H](CO)c1cccs1 [Example 67, 1-[(1R)-2-hydroxy-1-(2-thienyl)ethyl]-3-[4-(4-pyridinyl)phenyl]urea] | 112 nM | < 3 mg/kg | >130% | – | – | –
9 | O=C(Nc1ccc(-c2ccncc2)cc1)N[C@H](CO)c1ccccc1C(F)(F)F [Example 72, 1-{(1S)-2-hydroxy-1-[2-(trifluoromethyl)phenyl]ethyl}-3-[4-(4-pyridinyl)phenyl]urea] | 25 nM | – | – | – | – | –
10 | O=C(Nc1ccc(-c2ccncc2)cc1)N[C@@H](CO)Cc1ccccc1 [Example 73, 1-[(1R)-1-benzyl-2-hydroxyethyl]-3-[4-(4-pyridinyl)phenyl]urea] | 84 nM | – | – | – | – | –
11 | N[C@H](Cc1cccc(F)c1)C(=O)Nc1ccc(-c2ccncc2)cc1 [Example 86, 3-fluoro-N-[4-(4-pyridinyl)phenyl]-D-phenylalaninamide] | 5 nM | – | >130% | – | – | –
12 | CN[C@H](Cc1ccccc1)C(=O)Nc1ccc(-c2ccncc2)cc1 [Example 98, N-alpha-methyl-N-[4-(4-pyridinyl)phenyl]-D-phenylalaninamide] | 21 nM | < 3 mg/kg | >130% | – | – | –
13 | N[C@@H](C(=O)Nc1ccc(-c2ccncc2)cc1)c1ccccc1 [Example 108, (2R)-2-amino-2-phenyl-N-[4-(4-pyridinyl)phenyl]acetamide] | 14 nM | < 3 mg/kg | >130% | – | – | –
14 | N[C@H](C(=O)Nc1ccc(-c2ccncc2)cc1)c1ccccc1 [Example 109, (2S)-2-amino-2-phenyl-N-[4-(4-pyridinyl)phenyl]acetamide] | 12 nM | – | – | – | – | <1 mg/kg
15 | O=C(Nc1ccc(-c2ccncc2)cc1)C(c1ccccc1)N1CCOCC1 (centres unmarked) [Example 119, 2-morpholin-4-yl-2-phenyl-N-[4-(4-pyridinyl)phenyl]acetamide] | 212 nM | < 3 mg/kg | – | – | – | –
16 | Nc1nccc(-c2ccc3c(c2)CCN3C(=O)[C@@H](N)Cc2ccccc2)n1 [Example 151, 4-{1-[(2S)-2-amino-3-phenylpropanoyl]-2,3-dihydro-1H-indol-5-yl}pyrimidin-2-amine] | 86 nM | – | – | – | – | <1 mg/kg
17 | Nc1nccc(-c2ccc(NC(=O)[C@H](N)c3ccccc3)cc2)n1 [Example 154, (2R)-2-amino-N-[4-(2-aminopyrimidin-4-yl)phenyl]-2-phenylacetamide] | 42 nM | < 3 mg/kg | >130% | – | – | <1 mg/kg
18 | Nc1nccc(-c2ccc(NC(=O)[C@H](N)c3cccs3)cc2)n1 [Example 155, (2S)-2-amino-N-[4-(2-aminopyrimidin-4-yl)phenyl]-2-(2-thienyl)acetamide] | 72 nM | – | – | – | – | –
